Measurements: patent publication US9974306B2, “Herbicidal combinations for tolerant soybean cultures” (priority 2012, dated 2018)

Columns and labels:
GLXMA GM_W336 = assay: Post-emergence greenhouse treatment, visual rating of effect on W336 transgenic (HPPD inhibitor tolerant) soybean; assay type: in vivo; conditions: for Effect (%): GLXMA GM_W336
Protocol: (§1) The soybeans were grown under the same conditions as described above. The following three varieties were used in the tests:
(§2) 1) W336—Transgenic soybean plants comprising a chimeric gene encoding a W336 mutant HPPD protein of Pseudomonas fluorescens (U.S. Pat. No. 6,245,968) fused to the optimized transit peptide for chloroplast targeting (U.S. Pat. No. 5,510,471), and under the control of the 35S CaMV promoter (Odell et al., 1985, Nature 313: 810-812) fused to the 5′ enhancer sequence of TEV (Carrington and Freed, 1990, J. Virol. 64: 1590-1597), with as 3′ transcript termination and polyadenylation region that of the CaMV 35S gene (Sanfacon et al., 1991, Genes & Development 5:141-149), abbreviated as “W336 soybean plants” herein. 2) MERLIN—conventional 3) PROTINA—conventional
(§3) Two sets of soybeans reaching different growth stages at application time were prepared: one up to growth stage BBCH 11 (1-2 leaf stage) and the other up to BBCH 13 (3-4 leaf stage). Both soybean sets were treated at the same time (together with the weeds) but they were evaluated separately.
(§4) The applications were performed by post emergence treatments on the planted pots using a spray volume of 300 L water per hectare. The herbicides were applied alone and in combination as in the tables below.
(§5) The trial was conducted in the greenhouse ensuring optimal growing conditions.
(§6) The herbicidal effects were assessed 14 and 24 days following application by visual ratings comparing treated and untreated plants (0%=no effect to 100%=complete die-off).
(§7) The visual ratings are used to calculate interactions between treatments alone and combination treatments according to S. R. Colby, Weeds 15, pages 20 to 22 (1967).

SETVI = assay: Post-emergence greenhouse treatment, visual rating of herbicidal effect; assay type: in vivo, Setaria viridis; conditions: 1-2 leaf; for Effect: 24 d; for Effect (%): SETVI, assessment 24 d
Protocol: (§8) Seeds of grass and broadleaf weeds were sown in pots (diameter: 8 cm) filled with a sandy loam soil. For the herbicide post-emergent treatment, the weeds were grown under optimal conditions up to a growth stage of BBCH 11 (1-2 leaf stage) to 14 (3-4 leaf stage) depending on species. The following weeds were used:
as §4, §5, §6, §7

GLXMA Protina = assay: Post-emergence greenhouse treatment, visual rating of effect on conventional soybean PROTINA; assay type: in vivo; conditions: for Effect (%): GLXMA Protina
Protocol: as §1, §2, §3, §4, §5, §6, §7

BIDPI = assay: Post-emergence greenhouse treatment, visual rating of herbicidal effect; assay type: in vivo, Bidens pilosa
Protocol: as §8, §4, §5, §6, §7

GLXMA Merlin = assay: Post-emergence greenhouse treatment, visual rating of effect on conventional soybean MERLIN; assay type: in vivo; conditions: for Effect (%): GLXMA Merlin, assessment 24 d
Protocol: as §1, §2, §3, §4, §5, §6, §7

SORHA = assay: Post-emergence greenhouse treatment, visual rating of herbicidal effect; assay type: in vivo, Sorghum halepense
Protocol: as §8, §4, §5, §6, §7

POLCO = assay: as above; assay type: in vivo, Polygonum convolvulus; conditions: for Effect (%): POLCO, (B1) alone 40 g a.i./ha
Protocol: as §8, §4, §5, §6, §7

PHBPU = assay: as above; assay type: in vivo, Pharbitis purpurea
Protocol: as §8, §4, §5, §6, §7

SETFA = assay: as above; assay type: in vivo, Setaria faberi; conditions: 1-2 leaf
Protocol: as §8, §4, §5, §6, §7

BRAPP = assay: as above; assay type: in vivo, Brachiaria platyphylla; conditions: for Effect (%): BRAPP
Protocol: as §8, §4, §5, §6, §7

EPHHL = assay: as above; assay type: in vivo, Euphorbia heterophylla
Protocol: as §8, §4, §5, §6, §7

[1] = 1-2 leaf, 14 d, 20 g a.i./ha alone
[2] = 1-2 leaf, 24 d, 20 g a.i./ha alone
[3] = 1-2 leaf, 24 d, 40 g a.i./ha alone
[4] = 1-2 leaf, 24 d, 80 g a.i./ha alone
[5] = 3-4 leaf, 14 d, 20 g a.i./ha alone
[6] = 3-4 leaf, 14 d, 80 g a.i./ha alone
[7] = 1-2 leaf, assessment 24 d, (B1) alone 40 g a.i./ha
[8] = 1-2 leaf, assessment 24 d, (B1) alone 80 g a.i./ha
[9] = 3-4 leaf, assessment 14 d, (B1) alone 20 g a.i./ha
[10] = 3-4 leaf, assessment 14 d, (B1) alone 40 g a.i./ha

## CSc1nnc(C(C)(C)C)c(=O)n1N [(B1), 4-amino-6-tert-butyl-4,5-dihydro-3-methylthio-1,2,4-triazin-5-one]
GLXMA GM_W336; [1]
  Effect: 20%
GLXMA GM_W336; [2]
  Effect: 10%
GLXMA GM_W336; [3]
  Effect: 10%
GLXMA GM_W336; [4]
  Effect: 30%
GLXMA GM_W336; 1-2 leaf, 14 d, 80 g a.i./ha
  Effect: 25%
GLXMA GM_W336; 1-2 leaf, 24 d, 40 g a.i./ha
  Effect: 10%
GLXMA GM_W336; 1-2 leaf, 24 d, 80 g a.i./ha
  Effect: 30%
GLXMA GM_W336; [5]
  Effect: 35%
GLXMA GM_W336; [6]
  Effect: 35%
GLXMA GM_W336; 3-4 leaf, 14 d, 20 g a.i./ha
  Effect: 35%
GLXMA GM_W336; 3-4 leaf, 14 d, 40 g a.i./ha
  Effect: 35%
GLXMA GM_W336; 3-4 leaf, 24 d, 20 g a.i./ha
  Effect: 30%
GLXMA GM_W336; [7]
  Effect (%): 10%
GLXMA GM_W336; [8]
  Effect (%): 30%
GLXMA GM_W336; [9]
  Effect (%): 35%
GLXMA GM_W336; [10]
  Effect (%): 35%
SETVI; 80 g a.i./ha alone
  Effect: 10%
SETVI; 80 g a.i./ha
  Effect: 10%
SETVI; (B1) alone 40 g a.i./ha
  Effect (%): 50%
SETVI; (B1) alone 80 g a.i./ha
  Effect (%): 10%
GLXMA Protina; [1]
  Effect: 20%
GLXMA Protina; [2]
  Effect: 15%
GLXMA Protina; [3]
  Effect: 15%
GLXMA Protina; [4]
  Effect: 40%
GLXMA Protina; 1-2 leaf, 14 d, 80 g a.i./ha
  Effect: 40%
GLXMA Protina; 1-2 leaf, 24 d, 80 g a.i./ha
  Effect: 40%
GLXMA Protina; [5]
  Effect: 25%
GLXMA Protina; 3-4 leaf, 14 d, 20 g a.i./ha
  Effect: 25%
GLXMA Protina; 3-4 leaf, 14 d, 40 g a.i./ha
  Effect: 35%
GLXMA Protina; 3-4 leaf, 24 d, 20 g a.i./ha
  Effect: 35%
GLXMA Protina; [7]
  Effect (%): 15%
GLXMA Protina; [9]
  Effect (%): 25%
GLXMA Protina; [10]
  Effect (%): 35%
BIDPI; [2]
  Effect: 5%
BIDPI; [3]
  Effect: 45%
BIDPI; 3-4 leaf, 14 d, 20 g a.i./ha
  Effect: 40%
BIDPI; 3-4 leaf, 24 d, 20 g a.i./ha
  Effect: 5%
BIDPI; BIDPI, 3-4 leaf, assessment 14 d, (B1) alone 20 g a.i./ha
  Effect (%): 40%
GLXMA Merlin; 1-2 leaf, 24 d, 40 g a.i./ha
  Effect: 0%
GLXMA Merlin; [6]
  Effect: 50%
GLXMA Merlin; 3-4 leaf, 24 d, 20 g a.i./ha
  Effect: 40%
GLXMA Merlin; 1-2 leaf, (B1) alone 40 g a.i./ha
  Effect (%): 0%
GLXMA Merlin; 1-2 leaf, (B1) alone 80 g a.i./ha
  Effect (%): 10%
SORHA; [4]
  Effect: 10%
SORHA; 1-2 leaf, 14 d, 80 g a.i./ha
  Effect: 20%
SORHA; 1-2 leaf, 24 d, 80 g a.i./ha
  Effect: 10%
SORHA; [5]
  Effect: 20%
SORHA; [6]
  Effect: 20%
SORHA; 3-4 leaf, 14 d, 20 g a.i./ha
  Effect: 20%
SORHA; 3-4 leaf, 24 d, 20 g a.i./ha
  Effect: 0%
SORHA; SORHA, 1-2 leaf, assessment 24 d, (B1) alone 40 g a.i./ha
  Effect (%): 10%
POLCO; [4]
  Effect: 20%
POLCO; [5]
  Effect: 10%
POLCO; [6]
  Effect: 40%
POLCO; 3-4 leaf, 14 d, 20 g a.i./ha
  Effect: 10%
POLCO; 3-4 leaf, 24 d, 20 g a.i./ha
  Effect: 10%
POLCO; 1-2 leaf, assessment 24 d
  Effect (%): 15%
POLCO; 3-4 leaf, assessment 14 d
  Effect (%): 40%
PHBPU; [2]
  Effect: 0%
PHBPU; 1-2 leaf, 24 d, 40 g a.i./ha
  Effect: 0%
PHBPU; 3-4 leaf, 14 d, 40 g a.i./ha
  Effect: 10%
SETFA; 14 d, 80 g a.i./ha
  Effect: 30%
SETFA; 24 d, 40 g a.i./ha
  Effect: 10%
SETFA; SETFA, assessment 24 d, (B1) alone 40 g a.i./ha
  Effect (%): 10%
BRAPP; [1]
  Effect: 15%
BRAPP; [2]
  Effect: 10%
BRAPP; [3]
  Effect: 10%
BRAPP; 3-4 leaf, 14 d, 20 g a.i./ha
  Effect: 15%
BRAPP; 3-4 leaf, 14 d, 40 g a.i./ha
  Effect: 45%
BRAPP; 3-4 leaf, 24 d, 20 g a.i./ha
  Effect: 10%
BRAPP; [7]
  Effect (%): 10%
BRAPP; [8]
  Effect (%): 35%
BRAPP; [9]
  Effect (%): 15%
BRAPP; [10]
  Effect (%): 45%
EPHHL; [1]
  Effect: 45%
EPHHL; [2]
  Effect: 20%
EPHHL; [4]
  Effect: 65%
EPHHL; 3-4 leaf, 24 d, 20 g a.i./ha
  Effect: 20%
